# Measurements taken from ChEMBL document CHEMBL6109139, “Rational Design of the First Dual Agonist at Trace Amine-Associated Receptor 1 and 5-HT2C Receptors Based on Binding Pocket Similarity for the Treatment of Schizophrenia and Alzheimer's Disease-Related Psychosis” (J Med Chem, 2025).
# Calls of active or inactive are those of the source. No cut-off for these calls is given here.
# Tests used:
# [1] = Toxicity in male Sprague-Dawley rat assessed as change in prolactin level at 2.5 to 7.5 mg/kg, po administered once daily for 4 weeks and measured after 4 weeks; assay type: organism-based; details: in vivo, 1344 h, dose 2.5-7.5 mg/kg, time 8 weeks
# [2] = Toxicity in female Beagle dog assessed as change in organ ratios at 0.75 to 2.5 mg/kg, IG administered once daily for 4 weeks and measured after 4 weeks; assay type: organism-based, Canis lupus familiaris; details: in vivo, po, 1344 h, dose 0.75-2.5 mg/kg, time 8 weeks
# [3] = biological target: 5-hydroxytryptamine receptor 2C (Mus musculus, UniProt P34968); experiment: Agonist activity at mouse 5-HT2CR; assay type: functional
# Chain of 5-hydroxytryptamine receptor 2C (P34968 whole entry): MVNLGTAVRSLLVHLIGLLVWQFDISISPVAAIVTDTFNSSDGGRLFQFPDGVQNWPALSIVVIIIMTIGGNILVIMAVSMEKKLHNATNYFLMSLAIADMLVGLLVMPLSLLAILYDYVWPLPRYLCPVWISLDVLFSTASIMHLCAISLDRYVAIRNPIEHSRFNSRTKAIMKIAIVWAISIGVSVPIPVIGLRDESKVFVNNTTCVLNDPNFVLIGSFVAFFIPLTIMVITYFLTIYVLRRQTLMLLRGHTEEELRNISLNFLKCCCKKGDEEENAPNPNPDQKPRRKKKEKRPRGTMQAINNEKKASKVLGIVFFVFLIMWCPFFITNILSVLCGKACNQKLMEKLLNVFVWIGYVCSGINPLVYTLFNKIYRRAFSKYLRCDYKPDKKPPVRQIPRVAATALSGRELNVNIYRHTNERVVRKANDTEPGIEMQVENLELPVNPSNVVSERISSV
# [4] = Toxicity in male Beagle dog assessed as somnolence at 2.5 mg/kg, IG administered once daily for 4 weeks; assay type: organism-based, Canis lupus familiaris; details: in vivo, po, 672 h
# [5] = Toxicity in male Beagle dog assessed as change in prolactin at 0.75 to 2.5 mg/kg, IG administered once daily for 4 weeks and measured after 4 weeks; assay type: organism-based, Canis lupus familiaris; details: in vivo, po, 1344 h, dose 0.75-2.5 mg/kg, time 8 weeks
# Mus musculus [6] = experiment: Antipsychotic activity against methamphetamine-induced hyperlocomotion in male C57BL/6J mouse model assessed as reduction in hyperlocomotive state at 10 mg/kg, IG pretreated with compound followed by methamphetamine addition and measured after 30 mins by open field test; assay type: functional, organism-based
# [7] = AUClast in male mouse at 10 mg/kg, IG measured after 24 hrs; assay type: ADME, organism-based; details: in vivo, po
# [8] = Cardiotoxicity in conscious cynomolgus monkey assessed as good general health at 3.125 to 12.5 mg/kg, IG; assay type: toxicity, organism-based, Macaca fascicularis; details: in vivo, po, dose 3.125-12.5 mg/kg
# [9] = Toxicity in Sprague-Dawley rat assessed as fasciculation 2.5 to 7.5 mg/kg, po administered once daily for 4 weeks; assay type: organism-based; details: in vivo, 672 h, dose 2.5-7.5 mg/kg
# [10] = biological target: 5-hydroxytryptamine receptor 2B (Homo sapiens) (UniProt P41595); experiment: Binding affinity to 5-HT2B (unknown origin) at 10 uM by radioligand binding assay relative to control
# Chain of 5-hydroxytryptamine receptor 2B (Homo sapiens) (P41595 whole entry): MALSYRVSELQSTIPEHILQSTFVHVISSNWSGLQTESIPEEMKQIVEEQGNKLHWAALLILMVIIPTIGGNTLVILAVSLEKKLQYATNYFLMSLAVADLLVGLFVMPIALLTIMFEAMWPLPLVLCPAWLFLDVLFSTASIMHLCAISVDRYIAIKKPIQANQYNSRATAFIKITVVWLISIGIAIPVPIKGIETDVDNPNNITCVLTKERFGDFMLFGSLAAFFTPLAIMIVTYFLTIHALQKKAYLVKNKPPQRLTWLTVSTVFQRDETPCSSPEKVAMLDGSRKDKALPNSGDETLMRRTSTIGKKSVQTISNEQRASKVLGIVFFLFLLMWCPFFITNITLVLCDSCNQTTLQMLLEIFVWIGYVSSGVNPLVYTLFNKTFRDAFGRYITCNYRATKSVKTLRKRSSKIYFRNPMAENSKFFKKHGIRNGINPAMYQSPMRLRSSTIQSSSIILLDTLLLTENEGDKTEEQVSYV
# [11] = biological target: Adenosine receptor A2a (Homo sapiens) (UniProt P29274); experiment: Binding affinity to ADORA2A (unknown origin) at 10 uM by radioligand binding assay relative to control
# Chain of Adenosine receptor A2a (Homo sapiens) (P29274 whole entry): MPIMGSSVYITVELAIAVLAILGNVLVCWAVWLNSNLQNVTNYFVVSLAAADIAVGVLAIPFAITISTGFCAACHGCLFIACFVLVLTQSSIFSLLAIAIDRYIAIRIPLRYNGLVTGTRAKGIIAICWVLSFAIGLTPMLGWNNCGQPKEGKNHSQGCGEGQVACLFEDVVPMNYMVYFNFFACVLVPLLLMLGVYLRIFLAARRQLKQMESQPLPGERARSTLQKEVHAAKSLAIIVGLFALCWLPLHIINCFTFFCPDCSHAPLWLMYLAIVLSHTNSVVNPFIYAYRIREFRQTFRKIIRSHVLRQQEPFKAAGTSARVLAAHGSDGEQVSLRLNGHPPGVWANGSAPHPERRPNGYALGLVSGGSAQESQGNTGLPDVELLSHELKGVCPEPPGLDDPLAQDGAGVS
# HEK293 = experiment: Agonist activity at 5HT2CR […] mutant (unknown origin) expressed in HEK293 cells assessed as IP1 level by HTRF IP1 competitive binding assay; assay type: cell-based; details: Homo sapiens
# [12] = Toxicity in female Sprague-Dawley rat assessed as corneal epithelial degeneration at 2.5 to 7.5 mg/kg, po administered once daily for 4 weeks and measured after 4 weeks; assay type: organism-based; details: in vivo, 1344 h, dose 2.5-7.5 mg/kg, time 8 weeks
# [13] = Drug concentration in male Sprague-Dawley rat brain at 5 mg/kg, IG measured after 0.25 hrs by LC-MS/MS analysis; assay type: ADME, organism-based; details: in vivo, po
# [14] = Toxicity in female Beagle dog assessed as change in gross necropsy at 0.75 to 2.5 mg/kg, IG administered once daily for 4 weeks and measured after 4 weeks; assay type: organism-based, Canis lupus familiaris; details: in vivo, po, 1344 h, dose 0.75-2.5 mg/kg, time 8 weeks
# [15] = biological target: Alpha-2A adrenergic receptor (Homo sapiens) (UniProt P08913); experiment: Binding affinity to alpha 2A (unknown origin) at 10 uM by radioligand binding assay relative to control
# Chain of Alpha-2A adrenergic receptor (Homo sapiens) (P08913 whole entry): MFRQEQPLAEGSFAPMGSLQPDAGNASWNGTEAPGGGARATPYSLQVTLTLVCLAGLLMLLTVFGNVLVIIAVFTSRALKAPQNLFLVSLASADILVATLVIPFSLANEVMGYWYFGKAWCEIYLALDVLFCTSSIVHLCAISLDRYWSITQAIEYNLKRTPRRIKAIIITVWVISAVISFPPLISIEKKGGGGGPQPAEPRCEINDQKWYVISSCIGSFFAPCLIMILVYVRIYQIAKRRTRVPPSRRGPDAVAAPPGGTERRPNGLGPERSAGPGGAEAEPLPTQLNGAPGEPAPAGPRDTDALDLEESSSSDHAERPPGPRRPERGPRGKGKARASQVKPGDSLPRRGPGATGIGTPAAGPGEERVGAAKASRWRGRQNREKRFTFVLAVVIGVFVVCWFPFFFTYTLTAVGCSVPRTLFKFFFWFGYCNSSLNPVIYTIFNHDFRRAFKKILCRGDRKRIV
# Mus musculus [16] = experiment: Antipsychotic activity against MK-801 induced hypermobilization in male C57BL/6J mouse model assessed as reduction in hypermobilization state at 3 mg/kg, IG pretreated with compound followed by MK-801 addition and measured after 30 mins by open field test; assay type: functional, organism-based
# [17] = Toxicity in female Sprague-Dawley rat assessed as change in blood glucose level at 2.5 to 7.5 mg/kg, po administered once daily for 4 weeks and measured after 4 weeks; assay type: organism-based; details: in vivo, 1344 h, dose 2.5-7.5 mg/kg, time 8 weeks
# [18] = Metabolic stability in human liver microsomes assessed as intrinsic clearance at 1 uM incubated for 60 mins by LC-MS/MS analysis; assay type: ADME, Microsome; details: read-out: CLH
# [19] = biological target: Muscarinic acetylcholine receptor M1 (Homo sapiens) (UniProt P11229); experiment: Binding affinity to M1 receptor (unknown origin) at 10 uM by radioligand binding assay relative to control
# Chain of Muscarinic acetylcholine receptor M1 (Homo sapiens) (P11229 whole entry): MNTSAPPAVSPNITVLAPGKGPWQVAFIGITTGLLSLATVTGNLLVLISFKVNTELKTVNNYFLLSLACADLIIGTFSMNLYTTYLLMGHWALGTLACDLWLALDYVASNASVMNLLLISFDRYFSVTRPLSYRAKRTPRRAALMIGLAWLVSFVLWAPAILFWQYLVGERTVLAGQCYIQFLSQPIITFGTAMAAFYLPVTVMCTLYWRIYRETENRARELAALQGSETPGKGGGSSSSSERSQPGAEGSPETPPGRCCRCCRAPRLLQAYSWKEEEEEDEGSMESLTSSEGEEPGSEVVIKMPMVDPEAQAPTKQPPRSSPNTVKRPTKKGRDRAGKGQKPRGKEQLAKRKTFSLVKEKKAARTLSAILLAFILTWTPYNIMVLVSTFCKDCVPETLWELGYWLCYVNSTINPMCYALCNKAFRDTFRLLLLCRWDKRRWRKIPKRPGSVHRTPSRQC
# [20] = biological target: Muscarinic acetylcholine receptor M2 (Homo sapiens) (UniProt P08172); experiment: Binding affinity to M2 receptor (unknown origin) at 10 uM by radioligand binding assay relative to control
# Chain of Muscarinic acetylcholine receptor M2 (Homo sapiens) (P08172 whole entry): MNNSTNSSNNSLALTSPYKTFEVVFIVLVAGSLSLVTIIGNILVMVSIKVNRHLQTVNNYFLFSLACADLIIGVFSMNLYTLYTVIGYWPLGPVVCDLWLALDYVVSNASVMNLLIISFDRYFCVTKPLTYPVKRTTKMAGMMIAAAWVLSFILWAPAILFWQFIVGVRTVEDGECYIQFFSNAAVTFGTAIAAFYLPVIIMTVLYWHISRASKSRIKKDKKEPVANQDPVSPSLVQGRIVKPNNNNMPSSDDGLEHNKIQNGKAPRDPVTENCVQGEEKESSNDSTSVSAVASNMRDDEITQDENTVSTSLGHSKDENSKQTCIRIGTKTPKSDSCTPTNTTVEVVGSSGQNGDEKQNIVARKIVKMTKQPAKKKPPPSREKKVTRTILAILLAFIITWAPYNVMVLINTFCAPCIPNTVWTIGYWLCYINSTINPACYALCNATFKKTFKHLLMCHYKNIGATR
# [21] = Toxicity in male Beagle dog assessed as change in urinalysis at 0.75 to 2.5 mg/kg, IG administered once daily for 4 weeks and measured after 4 weeks; assay type: organism-based, Canis lupus familiaris; details: in vivo, po, 1344 h, dose 0.75-2.5 mg/kg, time 8 weeks
# Cytochrome P450 3A4 = Cytochrome P450 3A4 (Homo sapiens, UniProt P08684); experiment: Inhibition of CYP3A4 in human liver microsomes in presence of NADPH by LC-MS/MS analysis; assay type: ADME, Microsome
# Chain of Cytochrome P450 3A4 (P08684 whole entry): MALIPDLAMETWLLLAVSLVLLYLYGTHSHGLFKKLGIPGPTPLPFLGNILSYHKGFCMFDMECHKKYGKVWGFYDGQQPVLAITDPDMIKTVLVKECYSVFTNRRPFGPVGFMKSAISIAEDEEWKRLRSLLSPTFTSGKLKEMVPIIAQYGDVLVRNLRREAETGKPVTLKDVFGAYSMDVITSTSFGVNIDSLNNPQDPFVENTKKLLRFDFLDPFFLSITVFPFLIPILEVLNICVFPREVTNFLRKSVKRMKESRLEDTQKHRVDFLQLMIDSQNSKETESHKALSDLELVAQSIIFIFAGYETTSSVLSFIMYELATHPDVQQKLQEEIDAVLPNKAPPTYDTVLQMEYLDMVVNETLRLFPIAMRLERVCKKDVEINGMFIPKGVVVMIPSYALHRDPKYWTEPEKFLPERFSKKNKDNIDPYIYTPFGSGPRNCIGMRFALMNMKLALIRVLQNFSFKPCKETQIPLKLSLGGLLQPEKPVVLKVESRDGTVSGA
# Mus musculus [22] = experiment: Antipsychotic activity against MK-801 induced hyperlocomotion in male C57BL/6J mouse model assessed as reduction in hyperlocomotive state at 5 mg/kg, IG pretreated with compound followed by MK-801 addition and measured after 30 mins by open field test; assay type: functional, organism-based
# [23] = Toxicity in female Sprague-Dawley rat assessed as change in clinical chemistry at 2.5 to 7.5 mg/kg, po administered once daily for 4 weeks and measured after 4 weeks; assay type: organism-based; details: in vivo, 1344 h, dose 2.5-7.5 mg/kg, time 8 weeks
# [24] = Toxicity in male Sprague-Dawley rat assessed as change in clinical chemistry at 2.5 to 7.5 mg/kg, po administered once daily for 4 weeks and measured after 4 weeks; assay type: organism-based; details: in vivo, 1344 h, dose 2.5-7.5 mg/kg, time 8 weeks
# [25] = biological target: 5-hydroxytryptamine receptor 1A (Homo sapiens, UniProt P08908); experiment: Agonist activity at human 5-HT1A expressed in CHO cells coexpressing Galpha15 by FLIPR calcium assay; assay type: functional, cell-based
# Chain of 5-hydroxytryptamine receptor 1A (P08908 whole entry): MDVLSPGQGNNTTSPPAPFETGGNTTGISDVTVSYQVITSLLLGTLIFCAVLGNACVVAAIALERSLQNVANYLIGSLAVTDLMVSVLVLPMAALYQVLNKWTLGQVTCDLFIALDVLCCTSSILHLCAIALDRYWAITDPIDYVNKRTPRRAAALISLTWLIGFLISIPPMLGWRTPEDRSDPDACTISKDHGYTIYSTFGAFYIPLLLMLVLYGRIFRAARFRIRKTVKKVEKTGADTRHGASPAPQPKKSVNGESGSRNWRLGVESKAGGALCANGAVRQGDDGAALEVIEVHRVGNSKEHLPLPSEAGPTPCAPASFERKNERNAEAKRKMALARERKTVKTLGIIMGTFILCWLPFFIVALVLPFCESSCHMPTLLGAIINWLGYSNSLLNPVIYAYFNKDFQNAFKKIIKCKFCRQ
# Mus musculus [26] = experiment: Antidepressant activity in chronic social defeat stress induced depressive C57BL/6J mouse model assessed as increase in time of interaction zone administered intragastrically measured after 15 mins by open field test; assay type: functional, organism-based; details: dose 0.5-2 mg/kg
# [27] = Toxicity in male Sprague-Dawley rat assessed as change in organ weight at 2.5 to 7.5 mg/kg, po administered once daily for 4 weeks and measured after 4 weeks; assay type: organism-based; details: in vivo, 1344 h, dose 2.5-7.5 mg/kg, time 8 weeks
# [28] = Toxicity in Sprague-Dawley rat assessed as dyskinesia 2.5 to 7.5 mg/kg, po administered once daily for 4 weeks; assay type: organism-based; details: in vivo, 672 h, dose 2.5-7.5 mg/kg
# [29] = Toxicity in male Sprague-Dawley rat assessed as change in urinalysis at 2.5 to 7.5 mg/kg, po administered once daily for 4 weeks and measured after 4 weeks; assay type: organism-based; details: in vivo, 1344 h, dose 2.5-7.5 mg/kg, time 8 weeks
# [30] = Ratio of drug concentration in male Sprague-Dawley rat brain to plasma at 5 mg/kg, IG measured after 0.25 hrs by LC-MS/MS analysis; assay type: ADME, organism-based; details: brain and plasma, po, read-out: BPR
# [31] = Toxicity in male Sprague-Dawley rat assessed as change in blood glucose level at 2.5 to 7.5 mg/kg, po administered once daily for 4 weeks and measured after 4 weeks; assay type: organism-based; details: in vivo, 1344 h, dose 2.5-7.5 mg/kg, time 8 weeks
# [32] = biological target: Muscarinic acetylcholine receptor M3 (Homo sapiens) (UniProt P20309); experiment: Binding affinity to M3 receptor (unknown origin) at 10 uM by radioligand binding assay relative to control
# Chain of Muscarinic acetylcholine receptor M3 (Homo sapiens) (P20309 whole entry, looked up): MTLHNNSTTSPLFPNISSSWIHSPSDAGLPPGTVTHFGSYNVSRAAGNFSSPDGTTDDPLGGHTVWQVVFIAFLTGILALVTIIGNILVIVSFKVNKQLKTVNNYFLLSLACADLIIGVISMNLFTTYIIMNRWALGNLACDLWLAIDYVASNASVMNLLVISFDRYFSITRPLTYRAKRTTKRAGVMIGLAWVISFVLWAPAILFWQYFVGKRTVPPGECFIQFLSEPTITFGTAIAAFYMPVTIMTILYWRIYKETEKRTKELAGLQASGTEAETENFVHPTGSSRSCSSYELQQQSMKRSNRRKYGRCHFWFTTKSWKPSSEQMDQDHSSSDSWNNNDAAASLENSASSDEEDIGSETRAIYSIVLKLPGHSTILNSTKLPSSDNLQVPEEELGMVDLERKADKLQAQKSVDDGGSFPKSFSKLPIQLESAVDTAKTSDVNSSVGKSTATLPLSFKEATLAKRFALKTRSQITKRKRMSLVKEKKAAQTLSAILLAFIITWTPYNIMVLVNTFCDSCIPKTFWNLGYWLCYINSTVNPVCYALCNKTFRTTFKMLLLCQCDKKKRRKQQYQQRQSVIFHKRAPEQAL
# [33] = Toxicity in Sprague-Dawley rat assessed as good general health at 2.5 to 7.5 mg/kg, po administered once daily for 4 weeks and measured after 4 weeks; assay type: organism-based; details: in vivo, 1344 h, dose 2.5-7.5 mg/kg, time 8 weeks
# [34] = Toxicity in female Sprague-Dawley rat assessed as change in organ weight at 2.5 to 7.5 mg/kg, po administered once daily for 4 weeks and measured after 4 weeks; assay type: organism-based; details: in vivo, 1344 h, dose 2.5-7.5 mg/kg, time 8 weeks
smiles,measurement,setting,value
c1cc2c(s1)[C@@H]1CNCCN1CC2,Activity,[1],Non-toxic
same,Activity,[2],Non-toxic
same,EC50,[3],0.0744 µM
same,Activity,[4],Toxic
same,Activity,[5],Non-toxic
same,Activity,Mus musculus [6],Active
same,AUC(0-t) at 24 h,[7],21.6 µM·h
same,Activity,[8],Non-toxic
same,Activity,[9],Non-toxic
same,Activity,[10],45.3%
same,Activity,[11],-1.11%
same,Activity,HEK293,inactive
same,Activity,[12],Non-toxic
same,Ct,[13],39250 nmol/kg
same,Activity,[14],Non-toxic
same,Activity,[15],72.7%
same,Activity,Mus musculus [16],Active; More Effective Than Ulotaront
same,Activity,[17],Non-toxic
same,CLint scaled at 1 µM,[18],6.8 mL/min/kg
same,Activity,[19],26.5%
same,Activity,[20],28.9%
same,Activity,[21],Non-toxic
same,IC50,Cytochrome P450 3A4,> 50 µM
same,Activity,Mus musculus [22],Active; More Effective Than Aripiprazole
same,Activity,[23],Non-toxic
same,Activity,[24],Non-toxic
same,EC50,[25],31.5 µM
same,Activity,Mus musculus [26],Dose-dependent-effect
same,Activity,[27],Non-toxic
same,Activity,[28],Non-toxic
same,Activity,[29],Non-toxic
same,Kp at 0.25 h,[30],8.45
same,Activity,[31],Non-toxic
same,Activity,[32],23.8%
same,Activity,[33],Non-toxic
same,Activity,[34],Non-toxic
